Experimental data from ChEMBL document CHEMBL1201862, “PubChem BioAssay data set” (2004).
Active and inactive are the calls of the source.

Columns and labels:
[1] = biological target: 26S proteasome non-ATPase regulatory subunit 14 (Homo sapiens, UniProt O00487); test: inhibition of proteasome subunit RPN11 – biochemical, fluorescence polarization, uHTS hits, confirmation (AID 602368); format: functional
[2] = biological target: T1, Streptokinase A (Streptococcus pyogenes serotype M1, UniProt P10520); test: S. pyogenes streptokinase expression inhibitors, potency, dose response, plasminogen activation absorbance, OD405 (AID 1914); format: functional, Streptococcus pyogenes M1 GAS;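 further: secreted streptokinase activity via plasminogen activation per viability signal from cell pellet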
T1 sequence (P10520 whole entry): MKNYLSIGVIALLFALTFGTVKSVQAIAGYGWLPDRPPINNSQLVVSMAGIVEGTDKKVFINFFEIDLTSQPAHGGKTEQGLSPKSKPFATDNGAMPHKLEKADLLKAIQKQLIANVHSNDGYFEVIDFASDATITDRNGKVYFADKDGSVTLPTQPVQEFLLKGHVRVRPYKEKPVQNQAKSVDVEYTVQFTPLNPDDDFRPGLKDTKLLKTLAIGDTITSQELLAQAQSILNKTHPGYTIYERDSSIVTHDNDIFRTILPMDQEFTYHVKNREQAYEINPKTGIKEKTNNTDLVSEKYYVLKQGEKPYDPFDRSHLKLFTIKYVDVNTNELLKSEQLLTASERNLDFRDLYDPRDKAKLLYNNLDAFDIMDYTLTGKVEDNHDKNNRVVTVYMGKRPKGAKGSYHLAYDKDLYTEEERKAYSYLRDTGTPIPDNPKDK

[3] = biological target: T2, Replicative DNA helicase DnaB (Mycobacterium tuberculosis, UniProt P9WMR3); test: DnaB intein splicing inhibitors, dose response, biochemical, cell-free fluorescence (AID 449749); format: functional
T2 sequence (P9WMR3 whole entry): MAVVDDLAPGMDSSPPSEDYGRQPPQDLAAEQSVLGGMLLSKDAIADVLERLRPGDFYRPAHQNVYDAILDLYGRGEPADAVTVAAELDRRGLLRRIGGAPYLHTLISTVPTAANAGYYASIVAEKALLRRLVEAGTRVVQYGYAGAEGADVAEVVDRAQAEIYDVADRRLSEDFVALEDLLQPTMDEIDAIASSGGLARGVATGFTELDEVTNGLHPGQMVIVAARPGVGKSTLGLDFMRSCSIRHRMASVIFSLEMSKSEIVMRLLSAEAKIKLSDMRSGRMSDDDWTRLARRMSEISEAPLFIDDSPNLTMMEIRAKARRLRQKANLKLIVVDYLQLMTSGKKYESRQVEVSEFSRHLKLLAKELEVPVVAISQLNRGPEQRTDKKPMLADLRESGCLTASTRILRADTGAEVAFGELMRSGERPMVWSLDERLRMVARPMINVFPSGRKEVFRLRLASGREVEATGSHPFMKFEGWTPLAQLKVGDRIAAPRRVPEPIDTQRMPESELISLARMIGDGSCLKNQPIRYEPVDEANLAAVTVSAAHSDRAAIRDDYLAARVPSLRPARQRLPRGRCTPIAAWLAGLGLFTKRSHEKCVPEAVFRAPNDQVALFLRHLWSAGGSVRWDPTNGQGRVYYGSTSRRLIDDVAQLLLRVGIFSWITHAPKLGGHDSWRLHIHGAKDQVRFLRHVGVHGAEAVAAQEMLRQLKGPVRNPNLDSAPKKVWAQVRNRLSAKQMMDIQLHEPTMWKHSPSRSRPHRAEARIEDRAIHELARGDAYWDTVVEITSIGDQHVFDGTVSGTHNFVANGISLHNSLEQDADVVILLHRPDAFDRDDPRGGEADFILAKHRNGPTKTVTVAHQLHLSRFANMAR

[4] = inhibitors of intracellular T. cruzi replication, confirmation, NIH3T3 host cells, beta-gal luminescence (AID 2044); format: functional, cell-based;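 further: intracellular parasites grown in NIH/3T3 mouse fibroblasts as host cells; luminescent beta-galactosidase reporter signal from transgenic T. cruzi replicating inside host cells; inhibitors lower the luminescence signal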
[5] = cytotoxicity toward NIH3T3 fibroblasts, dose response, counter-screen, cell-based, ATP luminescence, mouse fibroblasts (AID 2010); format: functional;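 further: cells exposed to compound for about 90 hours before reading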
[6] = biological target: Prothrombin (Bos taurus, UniProt P00735); test: thrombin inhibition, dose response, biochemical, fluorescence polarization, uHTS hits (AID 602369); format: functional
[7] = system: Streptococcus; test: Group A Streptococcus viability loss, dose response, counter-screen for streptokinase expression inhibitor project, luminescence, BacTiterGlo (AID 1915); format: functional, organism-based;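 further: potency for reduction of bacterial viability or growth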
[8] = biological target: T3, Protein RecA (Mycobacterium tuberculosis, UniProt P9WHJ3); test: Fluorescence Cell-Free Homogeneous Dose Retest to Identify Inhibitors of RecA-Intein Splicing Activity. [Related pubchem assays (depositor defined):AID2097, AID2223, AID489010, AID492950]; format: functional
T3 sequence (P9WHJ3 whole entry): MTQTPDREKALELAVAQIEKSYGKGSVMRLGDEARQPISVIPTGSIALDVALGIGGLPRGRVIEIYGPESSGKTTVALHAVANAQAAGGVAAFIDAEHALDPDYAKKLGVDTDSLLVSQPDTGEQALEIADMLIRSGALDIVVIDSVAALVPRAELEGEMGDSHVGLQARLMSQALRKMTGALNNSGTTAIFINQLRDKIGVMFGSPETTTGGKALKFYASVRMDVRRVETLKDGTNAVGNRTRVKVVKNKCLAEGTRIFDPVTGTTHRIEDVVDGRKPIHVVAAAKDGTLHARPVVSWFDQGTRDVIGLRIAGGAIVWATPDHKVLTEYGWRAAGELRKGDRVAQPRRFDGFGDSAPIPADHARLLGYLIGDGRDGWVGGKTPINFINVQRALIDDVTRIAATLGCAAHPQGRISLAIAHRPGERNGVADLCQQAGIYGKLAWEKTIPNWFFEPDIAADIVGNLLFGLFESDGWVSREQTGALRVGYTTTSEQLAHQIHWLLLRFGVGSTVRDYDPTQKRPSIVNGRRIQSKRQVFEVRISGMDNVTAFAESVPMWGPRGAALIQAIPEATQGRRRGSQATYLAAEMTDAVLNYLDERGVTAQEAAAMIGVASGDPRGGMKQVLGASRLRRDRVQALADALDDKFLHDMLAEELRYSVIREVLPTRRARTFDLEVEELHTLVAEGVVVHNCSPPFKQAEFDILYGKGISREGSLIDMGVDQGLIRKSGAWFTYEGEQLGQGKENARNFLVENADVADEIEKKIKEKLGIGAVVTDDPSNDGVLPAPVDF

[9] = biological target: 72 kDa type IV collagenase (Homo sapiens, UniProt P08253); test: Dose Response validation of uHTS RPN11 inhibitor hits using a MMP-2 Fluorescence assay.; format: functional
[10] = system: Streptococcus sp. 'group A'; test: growth inhibition of control SK(-) GAS strain, dose response, counter-screen for streptokinase expression inhibitor project, luminescence, kanamycin, BacTiterGlo, confirmation (AID 1900); format: functional, organism-based
[11] = system: BJ; test: cytotoxicity toward BJ-TERT-LT-ST fibroblasts, dose response, cell-based, RAS-independent, luminescence (AID 1935); format: functional; conditions: Homo sapiens;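 further: BJ fibroblasts immortalized with TERT plus LT and ST oncogenes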
[12] = C. albicans growth with fluconazole, confirmation, fluorescence, retest (AID 2467); format: functional, cell-based
[13] = biological target: NS3 (Hepatitis C virus, UniProt A3EZJ3); test: PubChem AID 2173; design: species or system Hepacivirus hominis
[14] = biological target: Hepatocyte nuclear factor 4-alpha (Homo sapiens, UniProt P41235); format: functional, cell-based;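 further: biochemical luminescence-based dose-response counterscreen measuring inhibition of HNF4 dimerization, run alongside a screen for blockers of ABHD5–perilipin-5 interaction; split luciferase complementation of HNF4 fusion proteins in cell lysate measuring dimerization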
[15] = biological target: Heat shock protein HSP 90-alpha (Homo sapiens, UniProt P07900); format: functional, organism-based
[16] = cytotoxicity toward DRD oncogenic fibroblasts, dose response, cell-based, non-viral oncogenic, luminescence (AID 1934); format: functional; conditions: Homo sapiens
[17] = system: BJ; test: cells; format: functional, cell-based; conditions: Homo sapiens
[18] = inhibitors of firefly luciferase expression or activity, dose response, H4 neuroglioma cells, luminescence (AID 1990); format: functional, cell-based
[19] = inhibitors of SNCA 5'UTR-driven reporter translation, confirmation, H4 neuroglioma cells, luminescence (AID 1988); format: functional, cell-based
[20] = system: BJ; test: cytotoxicity toward BJ-TERT fibroblasts, dose response, cell-based, RAS-independent, luminescence (AID 1933); format: functional; conditions: Homo sapiens
[21] = NIH-3T3 fibroblast cytotoxicity, dose response, cytotoxicity control, cell-based, fluorescence, Alamar Blue, secondary assay (AID 2327); format: functional;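 further: NIH-3T3 mouse fibroblasts cultured with fluconazole at 8 µg/mL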
[22] = Luminescence Cell-Based Dose Response HTS to Identify Inhibitors of 5'UTR Stem-Loop Driven Prion Protein mRNA Translation in H4 Neuroglioblastoma Cells. [Related pubchem assays: 1827 (Project Summary), 1813 (Primary HTS)]; format: functional
[23] = biological target: Nonstructural protein 1 (Influenza A virus, UniProt Q194T2); format: functional, Influenza A virus (A/California/07/2009(H1N1))
[24] = Shn3 3'UTR reporter inhibitors, dose response, cell-based, Clone20 osteoblasts, firefly luciferase, cherry-picked (AID 624132); format: functional;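 further: firefly luciferase luminescence from reporter carrying the Shn3 3'UTR in osteoblasts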
[25] = biological target: 5-hydroxytryptamine receptor 5A (Homo sapiens, UniProt P47898); test: Counterscreen for agonists of OPRM1-OPRD1 heterodimerization: luminescence-based cell-based high throughput dose response assay to identify agonists of 5-hydroxytryptamine (serotonin) 5A receptor (HTR5A). [Related pubchem assays (depositor defined):AID504326, AID504355, AID504692, AID504904, AID504905]; format: functional
[26] = biological target: Delta-type opioid receptor (Homo sapiens, UniProt P41143); test: Counterscreen for agonists of heterodimerization of the mu 1 (OPRM1) and delta 1 (OPRD1) opioid receptors: Luminescence-based cell-based high throughput dose response assay to identify agonists of OPRD1 homodimerization. [Related pubchem assays (depositor defined):AID504326, AID504355, AID504692, AID504904, AID504905]; format: functional
[27] = biological target: Mu-type opioid receptor (Homo sapiens, UniProt P35372); test: Counterscreen for agonists of heterodimerization of the mu 1 (OPRM1) and delta 1 (OPRD1) opioid receptors: Luminescence-based cell-based high throughput dose response assay to identify agonists of OPRM1 homodimerization.; format: functional;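 further: U2OS cells expressing OPRM1 and beta-arrestin as split beta-galactosidase partners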
[28] = control 3'UTR Renilla luciferase suppression, dose response, counter-screen for Shn3 inhibitor project, cell-based, Clone20-Shn3RL, cherry-picked (AID 624133); format: functional
[29] = biological target: Ras and Rab interactor 1/Tyrosine-protein kinase ABL1 (Homo sapiens, UniProt P00519+Q13671); format: functional;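 further: biochemical TR-FRET dose-response test measuring inhibition of binding between Rin1 and Abl proteins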
[30] = HepG2 cell cytotoxicity, dose response, cytotoxicity control for Shn3 inhibitor project, CellTiter-Glo, cherry-picked (AID 624134); format: functional, cell-based
[31] = biological target: Neuropeptides B/W receptor type 1 (Homo sapiens, UniProt P48145); test: GPR7 antagonist potency, late-stage follow-up, cell-based, fluorescence, dose response, set 6 (AID 588583); format: functional
[32] = biological target: Melanin-concentrating hormone receptor 1 (Homo sapiens, UniProt Q99705); test: Late-stage fluorescence-based counterscreen for antagonists of the G-protein coupled receptor 7 (GPR7): cell-based dose response assay to identify antagonists of the melanin-concentrating hormone receptor 1 (MCHR1) Set 6.; format: functional
Melanin-concentrating hormone receptor 1, sequence (Q99705 whole entry): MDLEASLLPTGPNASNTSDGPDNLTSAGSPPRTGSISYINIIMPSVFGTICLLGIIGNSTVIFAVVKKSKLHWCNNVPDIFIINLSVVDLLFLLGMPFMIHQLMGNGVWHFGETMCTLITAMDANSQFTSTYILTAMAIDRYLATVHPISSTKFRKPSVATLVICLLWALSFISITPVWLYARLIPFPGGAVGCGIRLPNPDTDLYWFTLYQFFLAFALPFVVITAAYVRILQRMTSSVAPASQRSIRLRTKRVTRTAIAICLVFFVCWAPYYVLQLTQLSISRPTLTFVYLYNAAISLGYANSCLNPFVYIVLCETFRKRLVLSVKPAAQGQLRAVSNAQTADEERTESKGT

Neuropeptides B/W receptor type 1, sequence (P48145 whole entry): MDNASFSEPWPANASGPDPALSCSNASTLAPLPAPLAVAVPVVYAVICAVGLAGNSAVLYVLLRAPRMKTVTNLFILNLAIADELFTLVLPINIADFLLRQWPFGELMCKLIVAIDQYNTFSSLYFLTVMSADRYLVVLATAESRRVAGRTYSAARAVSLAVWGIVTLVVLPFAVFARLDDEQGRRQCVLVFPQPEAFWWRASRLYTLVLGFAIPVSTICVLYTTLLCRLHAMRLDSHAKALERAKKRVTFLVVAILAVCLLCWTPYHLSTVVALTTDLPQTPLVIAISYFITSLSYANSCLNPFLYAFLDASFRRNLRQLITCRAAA
Delta-type opioid receptor, sequence (P41143 whole entry): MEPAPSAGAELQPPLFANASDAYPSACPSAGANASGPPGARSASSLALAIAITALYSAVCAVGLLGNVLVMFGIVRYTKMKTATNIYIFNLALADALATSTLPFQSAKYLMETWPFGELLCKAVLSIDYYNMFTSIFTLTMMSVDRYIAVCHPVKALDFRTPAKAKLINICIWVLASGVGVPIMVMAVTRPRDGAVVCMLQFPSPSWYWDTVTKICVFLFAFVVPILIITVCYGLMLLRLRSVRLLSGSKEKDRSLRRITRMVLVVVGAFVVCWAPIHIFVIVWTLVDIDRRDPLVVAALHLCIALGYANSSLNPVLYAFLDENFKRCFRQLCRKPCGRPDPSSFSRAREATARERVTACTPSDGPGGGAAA
26S proteasome non-ATPase regulatory subunit 14, sequence (O00487 whole entry): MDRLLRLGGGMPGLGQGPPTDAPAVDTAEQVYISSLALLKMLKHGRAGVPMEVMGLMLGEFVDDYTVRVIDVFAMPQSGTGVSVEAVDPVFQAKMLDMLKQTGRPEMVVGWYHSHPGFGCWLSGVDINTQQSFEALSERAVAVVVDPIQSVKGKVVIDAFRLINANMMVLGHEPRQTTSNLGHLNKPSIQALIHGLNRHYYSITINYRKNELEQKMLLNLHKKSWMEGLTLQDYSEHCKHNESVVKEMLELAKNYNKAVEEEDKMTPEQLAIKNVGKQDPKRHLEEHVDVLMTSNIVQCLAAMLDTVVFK
5-hydroxytryptamine receptor 5A, sequence (P47898 whole entry): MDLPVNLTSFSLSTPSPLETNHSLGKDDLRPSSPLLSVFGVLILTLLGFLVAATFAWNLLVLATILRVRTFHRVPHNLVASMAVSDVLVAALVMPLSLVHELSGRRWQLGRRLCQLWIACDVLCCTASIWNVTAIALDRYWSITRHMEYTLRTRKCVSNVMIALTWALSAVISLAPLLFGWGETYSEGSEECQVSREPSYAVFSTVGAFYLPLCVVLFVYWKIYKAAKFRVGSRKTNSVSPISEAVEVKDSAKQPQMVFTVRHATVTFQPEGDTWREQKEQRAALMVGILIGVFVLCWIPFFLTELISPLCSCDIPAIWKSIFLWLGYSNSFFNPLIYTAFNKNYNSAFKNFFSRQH
Nonstructural protein 1, sequence (Q194T2 whole entry): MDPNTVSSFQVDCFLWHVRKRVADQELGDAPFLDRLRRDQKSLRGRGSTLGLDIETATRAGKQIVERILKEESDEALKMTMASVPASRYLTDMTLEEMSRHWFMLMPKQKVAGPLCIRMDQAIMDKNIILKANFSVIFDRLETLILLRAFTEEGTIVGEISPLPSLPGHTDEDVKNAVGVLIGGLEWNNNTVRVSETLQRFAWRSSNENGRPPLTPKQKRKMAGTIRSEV
NS3, sequence (A3EZJ3 whole entry, the tested form may be a part): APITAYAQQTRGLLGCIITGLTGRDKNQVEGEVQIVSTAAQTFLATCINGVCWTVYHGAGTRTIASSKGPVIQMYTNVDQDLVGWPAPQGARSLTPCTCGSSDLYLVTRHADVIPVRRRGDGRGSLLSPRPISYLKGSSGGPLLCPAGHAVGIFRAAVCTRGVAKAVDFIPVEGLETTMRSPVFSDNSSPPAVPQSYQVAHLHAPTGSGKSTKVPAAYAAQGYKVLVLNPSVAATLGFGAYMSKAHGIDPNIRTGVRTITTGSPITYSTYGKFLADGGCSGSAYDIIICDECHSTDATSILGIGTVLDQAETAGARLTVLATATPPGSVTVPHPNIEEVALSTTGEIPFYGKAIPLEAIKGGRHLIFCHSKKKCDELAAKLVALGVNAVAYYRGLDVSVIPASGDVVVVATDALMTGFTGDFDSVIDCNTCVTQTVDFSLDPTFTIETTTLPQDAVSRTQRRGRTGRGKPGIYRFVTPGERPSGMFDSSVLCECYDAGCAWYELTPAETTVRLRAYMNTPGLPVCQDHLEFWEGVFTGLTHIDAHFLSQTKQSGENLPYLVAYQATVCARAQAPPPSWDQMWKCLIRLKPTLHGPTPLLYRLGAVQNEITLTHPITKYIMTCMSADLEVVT
72 kDa type IV collagenase, sequence (P08253 whole entry): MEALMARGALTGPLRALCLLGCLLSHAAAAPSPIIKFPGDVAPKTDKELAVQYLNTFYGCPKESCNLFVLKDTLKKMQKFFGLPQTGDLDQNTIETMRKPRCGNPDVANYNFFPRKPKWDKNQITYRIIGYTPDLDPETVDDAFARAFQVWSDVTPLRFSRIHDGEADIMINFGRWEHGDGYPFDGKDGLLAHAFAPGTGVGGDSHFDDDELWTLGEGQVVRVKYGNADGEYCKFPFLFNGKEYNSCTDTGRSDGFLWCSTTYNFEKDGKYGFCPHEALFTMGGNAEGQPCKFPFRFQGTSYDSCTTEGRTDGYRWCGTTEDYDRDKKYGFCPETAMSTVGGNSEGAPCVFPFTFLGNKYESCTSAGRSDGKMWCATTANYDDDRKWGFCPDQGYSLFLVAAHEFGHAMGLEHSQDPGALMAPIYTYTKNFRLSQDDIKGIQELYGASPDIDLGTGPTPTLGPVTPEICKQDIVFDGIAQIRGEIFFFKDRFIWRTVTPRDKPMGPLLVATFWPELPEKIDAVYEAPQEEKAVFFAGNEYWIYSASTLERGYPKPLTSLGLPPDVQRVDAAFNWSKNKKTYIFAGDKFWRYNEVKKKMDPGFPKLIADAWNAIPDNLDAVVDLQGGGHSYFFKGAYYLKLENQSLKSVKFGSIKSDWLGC
Mu-type opioid receptor, sequence (P35372 whole entry): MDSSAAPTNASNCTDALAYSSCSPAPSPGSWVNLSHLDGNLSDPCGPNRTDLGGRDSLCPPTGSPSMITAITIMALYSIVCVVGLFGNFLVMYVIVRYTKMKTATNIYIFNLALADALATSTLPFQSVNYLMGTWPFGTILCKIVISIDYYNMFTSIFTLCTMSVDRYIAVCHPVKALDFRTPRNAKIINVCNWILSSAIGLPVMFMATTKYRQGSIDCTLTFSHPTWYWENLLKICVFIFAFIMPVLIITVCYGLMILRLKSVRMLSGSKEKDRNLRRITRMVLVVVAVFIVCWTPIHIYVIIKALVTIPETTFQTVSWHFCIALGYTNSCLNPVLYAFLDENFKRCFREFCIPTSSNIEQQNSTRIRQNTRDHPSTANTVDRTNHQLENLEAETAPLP
Hepatocyte nuclear factor 4-alpha, sequence (P41235 whole entry, the tested form may be a part): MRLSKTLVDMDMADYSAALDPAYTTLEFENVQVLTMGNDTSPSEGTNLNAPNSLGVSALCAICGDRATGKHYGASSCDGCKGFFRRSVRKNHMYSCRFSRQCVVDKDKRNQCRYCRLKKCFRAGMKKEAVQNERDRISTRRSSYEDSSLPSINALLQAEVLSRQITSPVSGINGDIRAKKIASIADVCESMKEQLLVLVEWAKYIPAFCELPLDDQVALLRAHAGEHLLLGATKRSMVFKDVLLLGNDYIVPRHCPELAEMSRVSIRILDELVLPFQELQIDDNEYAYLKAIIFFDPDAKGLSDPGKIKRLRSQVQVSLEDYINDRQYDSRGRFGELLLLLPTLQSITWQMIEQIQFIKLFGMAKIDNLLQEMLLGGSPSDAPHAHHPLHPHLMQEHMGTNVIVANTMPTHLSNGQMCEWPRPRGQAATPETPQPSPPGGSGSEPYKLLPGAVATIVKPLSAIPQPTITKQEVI

Nc1c(-c2ccccc2)c(CSc2nc3ccccc3[nH]2)nn1-c1cccc(Cl)c1
IC50 [1]: 34 µM (active) | EC50 [2]: > 150 µM (not active) | AC50 [3]: 3.17 µM (active) | EC50 [4]: 1.17 µM (active) | EC50 [5]: > 60 µM (not active) | IC50 [6]: 41.5 µM (active) | EC50 [7]: > 150 µM (not active) | EC50 [8]: 2.71 µM (active) | IC50 [9]: > 100 µM (inactive) | EC50 [10]: 2.14 µM (active)

Cc1ccc(C)c(/C=C/C(=O)c2ccccc(=O)c2O)c1
EC50 [11]: > 150 µM (not active) | EC50 [12]: 1.47 µM (active) | IC50 [13]: 2.52 µM (active) | IC50 [14]: 6.56 µM (active) | EC50 [4]: 2.29 µM (active) | AC50 [15]: 2.42 µM (active) | EC50 [5]: 8.18 µM (active) | EC50 [16]: 56.8 µM (inconclusive) | EC50 [17]: 14.4 µM (active) | EC50 [18]: 13.9 µM (active) | EC50 [19]: 12.7 µM (active) | EC50 [7]: 5 µM (active) | EC50 [20]: 17.2 µM (inconclusive) | EC50 [10]: 1.41 µM (active) | EC50 [21]: > 150 µM (inactive) | EC50 [22]: > 120 µM (not active)

Cc1nc2nc(C)n(CCN3CCOCC3)c(=O)c2c(-c2cccc([N+](=O)[O-])c2)c1C(=O)CCCCCCCCCCN1CCC(c2ccccc2)(c2ccccc2)CC1
IC50 [23]: 21.9 µM (active) | AC50 [24]: 7.38 µM (active) | EC50 [25]: > 92.4 µM (inactive) | EC50 [26]: > 92.4 µM (inactive) | EC50 [27]: > 92.4 µM (inactive) | AC50 [28]: 11.3 µM (active) | IC50 [29]: 1.35 µM (active) | AC50 [30]: 14.7 µM (active)

COc1ccc(Oc2c(Cl)cnn(Cc3ccccc3Br)c2=O)cc1
IC50 [31]: 0.506 µM (active) | IC50 [32]: 0.506 µM (active)

CC(C#N)(c1ccccc1)c1c(Br)cnn(Cc2cccc3ccccc23)c1=O (stereo not drawn)
IC50 [31]: 0.326 µM (active) | IC50 [32]: 0.326 µM (active)
